Experimental data: PubChem BioAssay (NCI)
Values joined by “and” are separate entries in the source; they are usually repeats but may differ in a detail not shown here. Equal values may be shown once.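 Following 48 hours of exposure in 96-well plates, responses at five concentrations were used to interpolate endpoints linearly. GI50: concentration for 50% inhibition of growth. TGI is the concentration that stops growth completely.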 Where a SMILES comes first, the peptide text is derived from it. [ ]: non-standard residue; d: D form. The star is where a group is joined. ξ: configuration not given here. NMeF = CN[C@@H](Cc1ccccc1)C(=O)O; NMeN = CN[C@@H](CC(N)=O)C(=O)O; NMeV = CN[C@H](C(=O)O)C(C)C; ξNMeV = CNC(C(=O)O)C(C)C; Boc = CC(C)(C)OC(=O)*; ξNMeA = CNC(C)C(=O)O; ξV = CC(C)C(N)C(=O)O

Columns and labels:
Experiment in all cases: inhibition of tumour cell growth, NCI panel, 48 h
[1] = test system: HCT-116 colon
[2] = test system: TK-10 renal
[3] = test system: EKVX NSCLC
[4] = test system: HOP-92 NSCLC
[5] = test system: NCI/ADR-RES ovarian
[6] = test system: OVCAR-8 ovarian
[7] = test system: CAKI-1 renal
[8] = test system: NCI-H460 lung
[9] = test system: U251 CNS
[10] = test system: RPMI-8226 leukemia
[11] = test system: DLD-1 colon
[12] = test system: 786-0 renal
[13] = test system: A549 NSCLC
[14] = test system: BT-549 breast
[15] = test system: SR leukemia
[16] = test system: DMS 273 small cell lung
[17] = test system: HL-60(TB) leukemia
[18] = test system: MCF7 breast
[19] = test system: M14 melanoma
[20] = test system: SF-295 CNS
[21] = test system: MDA-N
[22] = test system: SK-MEL-5 melanoma
[23] = test system: IGROV1 ovarian
[24] = test system: RXF 393 renal
[25] = test system: KM20L2 colon
[26] = test system: CCRF-CEM leukemia
[27] = test system: MDA-MB-435
[28] = test system: K-562 leukemia
[29] = test system: SK-MEL-2 melanoma
[30] = test system: DMS 114 small cell lung
[31] = test system: MALME-3M melanoma
[32] = test system: SF-268 CNS
[33] = test system: NCI-H23 lung
[34] = test system: SNB-78 CNS
[35] = test system: SW-620 colon
[36] = test system: HOP-62 NSCLC
[37] = test system: OVCAR-5 ovarian
[38] = test system: SNB-75 CNS
[39] = test system: HS 578T breast
[40] = test system: XF 498 CNS
[41] = test system: SF-539 CNS
[42] = test system: NCI-H522 lung
[43] = test system: ACHN renal
[44] = test system: UACC-257 melanoma
[45] = test system: NCI-H226 lung
[46] = test system: MOLT-4 leukemia
[47] = test system: PC-3 prostate
[48] = test system: SNB-19 CNS
[49] = test system: SK-MEL-28 melanoma
[50] = test system: HT29 colon
[51] = test system: LXFL 529 NSCLC
[52] = test system: HCT-15 colon
[53] = test system: UACC-62 melanoma
[54] = test system: SK-OV-3 ovarian
[55] = test system: COLO 205 colon
[56] = test system: DU-145 prostate
[57] = test system: HCC-2998 colon
[58] = test system: KM12 colon
[59] = test system: OVCAR-3 ovarian
[60] = test system: OVCAR-4 ovarian
[61] = test system: A498 renal
[62] = test system: T-47D breast
[63] = test system: LOX IMVI melanoma
[64] = test system: SN12C renal
[65] = test system: MDA-MB-231 breast
[66] = test system: UO-31 renal

Structure (SMILES): COC(=O)C(C)N(C)C(=O)[C@H](CC(N)=O)N(C)C(=O)[C@@H]1CCCN1C(=O)[C@H](C(C)C)N(C)C(=O)C(C(C)C)N(C)C(=O)[C@H](Cc1ccccc1)N(C)C(=O)C(NC(=O)OC(C)(C)C)C(C)C (stereo partly specified) (Boc-[ξV][NMeF][ξNMeV][NMeV]P[NMeN][ξNMeA]-OMe)
- TGI [1]: 50 µM and 31.1 µM
- GI50 [2]: 18.4 µM
- TGI [2]: 50 µM and 51.8 µM
- GI50 [3]: 23.7 µM
- TGI [3]: > 50 µM and 61.5 µM
- GI50 [4]: 14.6 µM
- TGI [4]: 50 µM and 27.8 µM
- TGI [5]: > 50 µM
- TGI [6]: 31.3 µM
- GI50 [7]: 26.9 µM
- TGI [7]: > 50 µM and 55.3 µM
- GI50 [8]: 17.4 µM
- TGI [8]: 50 µM and 39 µM
- GI50 [9]: 16.9 µM
- TGI [9]: 23 µM and 30.5 µM
- TGI [10]: 41.9 µM
- TGI [11]: 31.8 µM
- GI50 [12]: 29.7 µM
- TGI [12]: 50 µM and > 100 µM
- GI50 [13]: > 100 µM
- TGI [13]: > 100 µM
- TGI [14]: 32.3 µM
- GI50 [15]: 0.005 µM
- TGI [15]: 50 µM and 21.6 µM
- TGI [16]: 28.9 µM
- GI50 [17]: 4.54 µM
- TGI [17]: 44.7 µM and 17.4 µM
- TGI [18]: 50 µM
- TGI [19]: 50 µM and 30.6 µM
- GI50 [20]: 32.8 µM
- TGI [20]: 26.3 µM and > 100 µM
- TGI [21]: 50 µM
- GI50 [22]: 15.2 µM
- TGI [22]: 50 µM and 28.5 µM
- GI50 [23]: 16.2 µM
- TGI [23]: 50 µM and 29.8 µM
- TGI [24]: 29.8 µM
- TGI [25]: > 100 µM
- GI50 [26]: 10.8 µM
- TGI [26]: 50 µM and 33.1 µM
- TGI [27]: 50 µM
- GI50 [28]: 21 µM
- TGI [28]: 50 µM and 57.2 µM
- TGI [29]: 20.1 µM and 22.9 µM
- TGI [30]: 17.1 µM
- TGI [31]: 32.5 µM
- GI50 [32]: 15.6 µM
- TGI [32]: 50 µM and 29 µM
- GI50 [33]: 20.4 µM
- TGI [33]: 50 µM and 40.4 µM
- TGI [34]: 40.4 µM
- GI50 [35]: 13 µM
- TGI [35]: 50 µM and 25.7 µM
- GI50 [36]: 19.1 µM
- TGI [36]: 31.5 µM and 38.8 µM
- GI50 [37]: 97.2 µM
- TGI [37]: > 100 µM
- GI50 [38]: 17.2 µM
- TGI [38]: 21.1 µM and 31.9 µM
- TGI [39]: 23.6 µM
- TGI [40]: 28.9 µM
- GI50 [41]: 18.1 µM
- TGI [41]: 50 µM and 32.4 µM
- TGI [42]: 50 µM and 29.8 µM
- GI50 [43]: > 100 µM
- TGI [43]: > 100 µM
- GI50 [44]: 19.4 µM
- TGI [44]: 50 µM and 39.4 µM
- GI50 [45]: 20.8 µM
- TGI [45]: 40.2 µM and 36.6 µM
- GI50 [46]: 11.1 µM
- TGI [46]: 21.5 µM and 33.6 µM
- TGI [47]: 50 µM
- GI50 [48]: 16.9 µM
- TGI [48]: 50 µM and 30.8 µM
- TGI [49]: 50 µM and 30.5 µM
- GI50 [50]: 23.4 µM
- TGI [50]: 50 µM and 57.7 µM
- TGI [51]: 10.3 µM
- GI50 [52]: 29.8 µM
- TGI [52]: 50 µM and > 100 µM
- GI50 [53]: 17.5 µM
- TGI [53]: 20.3 µM and 36.8 µM
- GI50 [54]: 29.4 µM
- TGI [54]: 50 µM and > 100 µM
- GI50 [55]: 17.5 µM
- TGI [55]: 50 µM and 35.6 µM
- TGI [56]: 50 µM
- GI50 [57]: 16.7 µM
- TGI [57]: 50 µM and 31.1 µM
- GI50 [58]: 18.8 µM
- TGI [58]: 22.8 µM and 37.3 µM
- GI50 [59]: 17.1 µM
- TGI [59]: 50 µM and 31.2 µM
- GI50 [60]: 31.1 µM
- TGI [60]: > 50 µM and 87.5 µM
- GI50 [61]: 21.9 µM
- TGI [61]: 50 µM and 67 µM
- TGI [62]: 50 µM
- GI50 [63]: 3.1 µM
- TGI [63]: 20.7 µM and 19.2 µM
- GI50 [64]: 17.4 µM
- TGI [64]: 50 µM and 33.5 µM
- TGI [65]: 50 µM
- GI50 [66]: 17.3 µM
- TGI [66]: 50 µM and 31.1 µM
